Data from US8101740B2, “Positron emission tomography probes for imaging immune activation and selected cancers” (The Regents of the University of California, priority 2007, dated 2012).

What was measured:
lymphoma lesion = experiment: PET scan of human subject with lymphoma lesion; type: in vivo; settings: coronal PET image
Source text: FIG. 29 presents PET scan images of a human subject after injection of [^18F]D-FAC. […] The heterogeneous spleen 292 is visible.

[1] = microPET/CT in Fas^1pr systemic autoimmunity model; type: in vivo, B6-MRL-Fas^1pr/J mice
[2] = biodistribution and radiation dosimetry in healthy human subjects; type: in vivo
Description: [^18F]D-FAC was evaluated in humans to a preliminary degree, whereby we investigated the normal biodistribution and radiation dosimetry of [^18F]D-FAC in human subjects (FIG. 16). […] Emission scans were acquired 20, 48, and 76 min post injection and radiation dosimetry estimates were calculated using the Olinda® software. […] The radiation dosimetry estimates show high agreement with the dosimetry results obtained from the studies in mice. The dose-limiting organs were the urinary bladder wall and the kidneys.

[3] = test system: L1210 wild type or 10K subcutaneous tumors; experiment: PET of subcutaneous L1210 wild type and 10K tumors; type: in vivo, SCID mice; settings: 4 days after injection
Description: To investigate whether [^18F]D-FAC PET can distinguish gemcitabine-sensitive cancer cells from the resistant cancer cells in vivo, mice were injected with L1210 wild type or 10K cells to establish subcutaneous tumors; mice were scanned with [^18F]FDG PET to confirm that implanted cells were viable and growing in vivo and [^18F]D-FAC PET scans were carried out to compare D-FAC accumulation in gemcitabine sensitive versus resistant cells. […] The mice were injected 4 days prior to imaging.
Mice were challenged with the MoMSV onco-retrovirus.

[4] = test system: Bcr-Abl-expressing Ba/F3 cells and Bcr-Abl transformed bone marrow; experiment: microPET/CT of Bcr-Abl oncogene-induced leukemia models; type: in vivo, mouse; settings: 1 hr after probe injection
Description: In addition to immune diseases, [^18F]D-FAC may also be used to measure dysregulated nucleoside metabolism in cancer. To this end, we examined the utility of [^18F]D-FAC microPET in animal models representative of leukemia or lymphoma, melanoma, and glioma tumors (FIG. 12, where the images are 1 mm coronal sections from [^18F]D-FAC microPET/CT scans 1 hr after probe injection). In FIG. 12A, SCID mice were injected intravenously with Ba/F3 cells expressing p210 BCR-ABL and go on to develop aggressive disease with massive splenic infiltration that typically results in death within ˜15 days (mice shown were imaged on day 12). In FIG. 12B, the NOD SCID mice were transplanted with wild type total bone marrow cells infected with MSCV-GFP-IRES-P185 BCR-ABL retroviral stocks and the leukemic mice were imaged 28 days following transplantation. In FIG. 12C, C57BL/6 was injected subcutaneously with 1×10^5 B16 melanoma cells and imaged 7 days later. […] [^18F]D-FAC PET also detected implanted murine B16 cells (representative of malignant melanoma) and human U87 cells (representative of glioma tumors). […]
Six to 8 week old mice with severe combined immunodeficiency (NOD SCID) were sublethally irradiated (275 rads) one day prior to reconstitution. […] Animals were monitored daily for signs of illness during a period of two months as previously described^10. […]

splenic CD8+T cells = experiment: radioactivity in sorted splenic CD8+T cells from mice injected with probe; type: in vivo; settings: CD62LLOW/CD44HIGH vs CD62LHIGH/CD44LOW
Source text: To further investigate the cellular basis of elevated [^18F]D-FAC retention, splenic CD8+T cells from mice injected with [^18F]FAC were fractionated by flow cytometry into naïve (CD62LHIGH/CD44LOW) and effector populations (CD62LLOW/CD44HIGH).

For Nc1ccn([C@@H]2O[C@H](CO)[C@@H](O)[C@@H]2[18F])c(=O)n1 [[^18F]D-FAC, 1-(2′-deoxy-2′-[^18F]fluoro-β-D-arabinofuranosyl)cytosine], the “concentration in lymph node” value (lymphoma lesion) was “high concentration”, the “mice with enlarged LNs on microPET scans” value ([1]; Fas^1pr/J mice) was 9 out of 13 and the “mice with probe-positive LNs” value ([1]; wild type mice) was 2 out of 19. The “absorbed dose, heart wall” value ([2]; 3 healthy male subjects) was 5.92E-02 rem/mCi, the “absorbed dose, kidneys” value ([2]; 3 healthy male subjects) was 1.06E-01 rem/mCi and the “absorbed dose, osteogenic cells” value ([2]; 3 healthy male subjects) was 6.69E-02 rem/mCi. For the same compound, the “absorbed dose, small intestine” value ([2]; 3 healthy male subjects) was 5.80E-02 rem/mCi, the “absorbed dose, spleen” value ([2]; 3 healthy male subjects) was 7.36E-02 rem/mCi and the “absorbed dose, urinary bladder wall” value ([2]; 3 healthy male subjects) was 2.06E-01 rem/mCi. For the same compound, the effective dose overall ([2]; 3 healthy male subjects) was 5.08E-02 rem/mCi, the “retention in the GI tract in humans in contrast to mice” value ([2]; human, in vivo) was “substantially lower” and the “organs with the highest accumulation” value ([2]; scans 20, 48 and 76 min post injection) was “the bladder, the kidneys, the spleen, the salivary glands, and the heart”. For the same compound, the route of clearance (dynamic microPET/CT time-activity curves) was “predominantly cleared through the kidney”, the “retention in the brain and the myocardium” value (mouse, in vivo) was “low retention” and the “organs with accumulated radioactivity” value (one hour after intravenous injection) was “thymus, spleen, intestine, bone/bone marrow and, to a lesser extent, in the liver”. The “Spleen, % ID/g per organ normalized to % ID/g muscle” value (spleen, 60 min after intravenous injection, 3 mice) was 2.16 +/− 0.48 % ID/g per organ normalized to % ID/g muscle, the “Thymus, % ID/g per organ normalized to % ID/g muscle” value (thymus, 60 min after intravenous injection, 3 mice) was 3.29 +/− 0.48 % ID/g per organ normalized to % ID/g muscle and the “retention/visualization in dCK deficient, gemcitabine resistant tumors” value ([3]; L1210-10K) was “did not accumulate”. The “retention/visualization in dCK positive, gemcitabine sensitive tumors” value ([3]; L1210 WT) was “clearly detectable”, the “retention in the spleen” value [4] was “increased” and the “retention in effector CD8+T cells versus naïve cytotoxic T cells” value (splenic CD8+T cells) was ~4 fold.
